Measured values as given in ChEMBL document CHEMBL1201862, “PubChem BioAssay data set” (2004).
Each block holds one molecule with its values, some of them ahead of it. Calls of active or inactive are those of the source.

Experiments:
Format in all cases: functional
[1] = biological target: Melanin-concentrating hormone receptor 1 (Homo sapiens, UniProt Q99705); test: Late-stage fluorescence-based counterscreen for antagonists of the G-protein coupled receptor 7 (GPR7): cell-based dose response assay to identify antagonists of the melanin-concentrating hormone receptor 1 (MCHR1) Set 5.
[2] = biological target: Neuropeptides B/W receptor type 1 (Homo sapiens, UniProt P48145); test: human NPBW1 receptor blockade, IC50 – cell-based, fluorescence, dose response, set 5, late-stage follow-up (AID 588566)
Chain of Neuropeptides B/W receptor type 1 (P48145 whole entry): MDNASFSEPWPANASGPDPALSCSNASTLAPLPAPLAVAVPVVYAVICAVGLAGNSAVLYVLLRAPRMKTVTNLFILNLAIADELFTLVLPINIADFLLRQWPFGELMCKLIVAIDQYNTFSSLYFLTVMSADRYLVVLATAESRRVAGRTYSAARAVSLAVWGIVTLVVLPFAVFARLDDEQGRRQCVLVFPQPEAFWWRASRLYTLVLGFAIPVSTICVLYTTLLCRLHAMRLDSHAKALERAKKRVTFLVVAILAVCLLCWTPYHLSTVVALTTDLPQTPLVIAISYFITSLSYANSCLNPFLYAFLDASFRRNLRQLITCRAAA

[3] = biological target: Benomyl/methotrexate resistance protein (Candida albicans, UniProt P28873); test: Candida albicans Mdr1 pump inhibition curves – singleplex, Cherry Pick1 hits, dose response (AID 588608)
[4] = biological target: Multidrug resistance protein CDR1 (Candida albicans, UniProt P43071); test: inhibition of Nile Red efflux via Candida CDR1 – S. cerevisiae AD1-8u, singleplex, Cherry Pick1 hits, dose response (AID 588606)
Chain of Multidrug resistance protein CDR1 (P43071 whole entry, looked up): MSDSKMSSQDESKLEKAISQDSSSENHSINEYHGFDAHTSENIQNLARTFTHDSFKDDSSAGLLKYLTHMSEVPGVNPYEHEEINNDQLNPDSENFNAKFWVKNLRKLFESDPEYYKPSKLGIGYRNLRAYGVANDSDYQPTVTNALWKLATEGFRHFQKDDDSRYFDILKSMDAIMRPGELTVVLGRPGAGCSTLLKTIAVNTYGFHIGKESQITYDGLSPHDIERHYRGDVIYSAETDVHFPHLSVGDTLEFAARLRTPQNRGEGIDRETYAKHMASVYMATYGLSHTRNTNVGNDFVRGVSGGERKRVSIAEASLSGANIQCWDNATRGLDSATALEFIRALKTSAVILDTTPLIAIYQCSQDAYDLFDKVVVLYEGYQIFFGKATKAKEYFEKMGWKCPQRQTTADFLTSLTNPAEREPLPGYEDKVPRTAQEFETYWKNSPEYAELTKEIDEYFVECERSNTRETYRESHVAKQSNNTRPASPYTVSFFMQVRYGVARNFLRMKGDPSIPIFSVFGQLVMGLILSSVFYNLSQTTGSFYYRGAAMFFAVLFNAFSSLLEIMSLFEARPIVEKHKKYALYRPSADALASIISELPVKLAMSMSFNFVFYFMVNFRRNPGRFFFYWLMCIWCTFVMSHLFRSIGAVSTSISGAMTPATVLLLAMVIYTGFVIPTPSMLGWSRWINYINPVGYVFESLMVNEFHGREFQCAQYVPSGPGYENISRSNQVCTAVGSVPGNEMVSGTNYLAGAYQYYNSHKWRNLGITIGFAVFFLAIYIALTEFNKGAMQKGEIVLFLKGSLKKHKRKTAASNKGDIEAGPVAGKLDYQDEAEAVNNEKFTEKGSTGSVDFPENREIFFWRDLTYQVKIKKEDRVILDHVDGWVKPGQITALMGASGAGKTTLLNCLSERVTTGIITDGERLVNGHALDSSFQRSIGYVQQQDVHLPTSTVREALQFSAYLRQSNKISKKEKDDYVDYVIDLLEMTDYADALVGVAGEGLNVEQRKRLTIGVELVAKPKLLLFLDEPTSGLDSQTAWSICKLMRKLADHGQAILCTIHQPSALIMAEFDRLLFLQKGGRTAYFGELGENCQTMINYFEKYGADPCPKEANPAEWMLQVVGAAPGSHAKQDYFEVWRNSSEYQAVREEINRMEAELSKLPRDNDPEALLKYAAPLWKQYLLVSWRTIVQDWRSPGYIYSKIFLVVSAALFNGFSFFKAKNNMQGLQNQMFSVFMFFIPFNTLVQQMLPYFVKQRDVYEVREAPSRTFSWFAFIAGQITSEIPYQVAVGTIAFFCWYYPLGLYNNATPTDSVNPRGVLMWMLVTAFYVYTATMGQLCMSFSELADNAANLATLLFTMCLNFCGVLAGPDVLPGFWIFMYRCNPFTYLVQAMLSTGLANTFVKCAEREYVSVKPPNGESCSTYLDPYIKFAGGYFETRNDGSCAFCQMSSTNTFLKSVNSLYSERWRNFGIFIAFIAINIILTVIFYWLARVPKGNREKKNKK

[5] = biological target: Multidrug resistance protein CDR2 (Candida albicans (strain SC5314 / ATCC MYA-2876) (Yeast), UniProt P78595); test: inhibition of Nile Red efflux via Candida CDR2 – S. cerevisiae AD1-8u, singleplex, Cherry Pick1 hits, dose response (AID 588604)
[6] = biological target: Fibroblast growth factor receptor 1 (Homo sapiens, UniProt P11362)
[7] = biological target: ALK tyrosine kinase receptor (Homo sapiens, UniProt Q9UM73);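 note: ALK tested as one member of a kinase panel screen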
[8] = biological target: Dual specificity protein kinase CLK4 (Homo sapiens, UniProt Q9HAZ1)
Chain of Dual specificity protein kinase CLK4 (Q9HAZ1 whole entry): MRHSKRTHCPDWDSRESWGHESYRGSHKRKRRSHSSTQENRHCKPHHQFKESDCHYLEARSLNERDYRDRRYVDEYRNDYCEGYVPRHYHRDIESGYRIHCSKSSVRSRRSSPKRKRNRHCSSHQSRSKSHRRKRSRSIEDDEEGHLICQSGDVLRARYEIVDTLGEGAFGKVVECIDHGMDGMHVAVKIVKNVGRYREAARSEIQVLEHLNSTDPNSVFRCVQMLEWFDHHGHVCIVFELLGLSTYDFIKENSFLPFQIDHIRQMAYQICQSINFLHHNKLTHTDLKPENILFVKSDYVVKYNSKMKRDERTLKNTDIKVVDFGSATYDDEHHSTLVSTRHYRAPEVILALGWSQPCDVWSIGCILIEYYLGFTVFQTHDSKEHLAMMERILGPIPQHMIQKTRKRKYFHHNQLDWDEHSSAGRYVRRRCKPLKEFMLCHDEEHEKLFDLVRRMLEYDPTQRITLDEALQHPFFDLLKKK

[9] = biological target: Ribosomal protein S6 kinase alpha-3 (Homo sapiens, UniProt P51812);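 note: measured within a kinome-wide profiling panel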
[10] = biological target: Leukocyte tyrosine kinase receptor (Homo sapiens, UniProt P29376); test: Navigating the Kinome. Panel member name: LTK
[11] = biological target: Vascular endothelial growth factor receptor 2 (Homo sapiens, UniProt P35968)
[12] = biological target: T1, Serine/threonine-protein kinase D3 (Homo sapiens, UniProt O94806);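 note: determined within a kinase panel screen, with PRKCN as the panel member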
T1 sequence (O94806 whole entry): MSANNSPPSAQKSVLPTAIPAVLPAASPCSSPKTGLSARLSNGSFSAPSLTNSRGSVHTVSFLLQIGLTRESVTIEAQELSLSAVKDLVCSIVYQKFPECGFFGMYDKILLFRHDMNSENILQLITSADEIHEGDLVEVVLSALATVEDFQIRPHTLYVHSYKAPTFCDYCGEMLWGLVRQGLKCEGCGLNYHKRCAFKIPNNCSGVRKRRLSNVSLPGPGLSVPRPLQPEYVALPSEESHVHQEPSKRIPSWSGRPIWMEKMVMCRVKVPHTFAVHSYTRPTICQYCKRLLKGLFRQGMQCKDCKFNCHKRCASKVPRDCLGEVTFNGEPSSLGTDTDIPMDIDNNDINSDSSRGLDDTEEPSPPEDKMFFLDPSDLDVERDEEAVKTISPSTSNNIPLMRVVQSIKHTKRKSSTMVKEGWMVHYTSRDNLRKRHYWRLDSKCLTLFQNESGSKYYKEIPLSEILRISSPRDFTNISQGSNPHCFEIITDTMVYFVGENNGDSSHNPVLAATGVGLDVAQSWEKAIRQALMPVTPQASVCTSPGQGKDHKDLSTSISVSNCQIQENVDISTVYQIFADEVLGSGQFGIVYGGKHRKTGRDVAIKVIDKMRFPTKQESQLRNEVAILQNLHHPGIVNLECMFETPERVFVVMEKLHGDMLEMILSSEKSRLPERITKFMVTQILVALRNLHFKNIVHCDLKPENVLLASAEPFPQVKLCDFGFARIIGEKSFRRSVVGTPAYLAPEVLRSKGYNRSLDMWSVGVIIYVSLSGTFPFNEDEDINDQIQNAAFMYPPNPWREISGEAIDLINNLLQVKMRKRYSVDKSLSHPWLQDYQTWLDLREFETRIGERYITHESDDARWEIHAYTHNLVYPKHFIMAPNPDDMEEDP

[13] = biological target: T2, Serine/threonine-protein kinase Chk1 (Homo sapiens, UniProt O14757);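 note: measured as one member of a kinome-wide kinase profiling panel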
T2 sequence (O14757 whole entry): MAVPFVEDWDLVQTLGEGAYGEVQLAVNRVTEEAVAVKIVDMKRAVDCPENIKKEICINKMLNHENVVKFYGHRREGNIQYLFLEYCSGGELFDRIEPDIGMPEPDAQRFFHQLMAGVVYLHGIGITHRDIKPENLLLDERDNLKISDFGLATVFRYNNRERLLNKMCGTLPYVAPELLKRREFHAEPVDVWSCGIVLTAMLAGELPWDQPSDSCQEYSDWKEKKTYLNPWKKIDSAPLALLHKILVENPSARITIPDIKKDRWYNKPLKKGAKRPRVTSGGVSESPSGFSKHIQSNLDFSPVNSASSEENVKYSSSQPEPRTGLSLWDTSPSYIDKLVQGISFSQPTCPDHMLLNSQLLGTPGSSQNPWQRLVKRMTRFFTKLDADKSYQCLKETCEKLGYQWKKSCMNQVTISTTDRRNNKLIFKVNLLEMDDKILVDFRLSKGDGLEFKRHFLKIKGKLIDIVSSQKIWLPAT

[14] = biological target: Cyclin-dependent kinase 5 (Homo sapiens, UniProt Q00535);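 note: CDK5 measured as one member of a kinase profiling panel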
[15] = biological target: Mitogen-activated protein kinase kinase kinase kinase 4 (Homo sapiens, UniProt O95819)
[16] = biological target: Serine/threonine-protein kinase TBK1 (Homo sapiens, UniProt Q9UHD2); test: Navigating the Kinome. Panel member name: TBK1
Chain of Serine/threonine-protein kinase TBK1 (Q9UHD2 whole entry): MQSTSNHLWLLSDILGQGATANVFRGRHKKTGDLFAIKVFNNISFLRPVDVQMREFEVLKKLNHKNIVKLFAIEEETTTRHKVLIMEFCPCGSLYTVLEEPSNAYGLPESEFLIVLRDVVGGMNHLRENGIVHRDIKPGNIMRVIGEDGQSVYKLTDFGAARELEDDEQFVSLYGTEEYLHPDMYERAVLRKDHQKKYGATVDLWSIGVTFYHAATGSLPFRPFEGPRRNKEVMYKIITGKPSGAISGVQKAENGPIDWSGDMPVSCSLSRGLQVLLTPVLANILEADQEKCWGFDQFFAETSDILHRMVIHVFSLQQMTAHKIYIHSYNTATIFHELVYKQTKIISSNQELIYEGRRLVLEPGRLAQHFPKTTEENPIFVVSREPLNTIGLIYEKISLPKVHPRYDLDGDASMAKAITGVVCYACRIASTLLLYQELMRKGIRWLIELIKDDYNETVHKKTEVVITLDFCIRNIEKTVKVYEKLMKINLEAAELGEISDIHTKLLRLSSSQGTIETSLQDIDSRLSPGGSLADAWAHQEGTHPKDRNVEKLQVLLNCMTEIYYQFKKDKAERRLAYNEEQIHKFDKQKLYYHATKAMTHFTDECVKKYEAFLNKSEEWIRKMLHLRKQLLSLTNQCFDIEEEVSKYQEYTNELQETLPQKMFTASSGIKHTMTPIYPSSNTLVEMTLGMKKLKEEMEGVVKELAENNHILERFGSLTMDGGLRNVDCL

[17] = biological target: Proto-oncogene tyrosine-protein kinase receptor Ret (Homo sapiens, UniProt P07949);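 note: measured within a kinome-wide profiling panel, RET as the panel member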
Chain of Proto-oncogene tyrosine-protein kinase receptor Ret (P07949 whole entry, the tested form may be a part): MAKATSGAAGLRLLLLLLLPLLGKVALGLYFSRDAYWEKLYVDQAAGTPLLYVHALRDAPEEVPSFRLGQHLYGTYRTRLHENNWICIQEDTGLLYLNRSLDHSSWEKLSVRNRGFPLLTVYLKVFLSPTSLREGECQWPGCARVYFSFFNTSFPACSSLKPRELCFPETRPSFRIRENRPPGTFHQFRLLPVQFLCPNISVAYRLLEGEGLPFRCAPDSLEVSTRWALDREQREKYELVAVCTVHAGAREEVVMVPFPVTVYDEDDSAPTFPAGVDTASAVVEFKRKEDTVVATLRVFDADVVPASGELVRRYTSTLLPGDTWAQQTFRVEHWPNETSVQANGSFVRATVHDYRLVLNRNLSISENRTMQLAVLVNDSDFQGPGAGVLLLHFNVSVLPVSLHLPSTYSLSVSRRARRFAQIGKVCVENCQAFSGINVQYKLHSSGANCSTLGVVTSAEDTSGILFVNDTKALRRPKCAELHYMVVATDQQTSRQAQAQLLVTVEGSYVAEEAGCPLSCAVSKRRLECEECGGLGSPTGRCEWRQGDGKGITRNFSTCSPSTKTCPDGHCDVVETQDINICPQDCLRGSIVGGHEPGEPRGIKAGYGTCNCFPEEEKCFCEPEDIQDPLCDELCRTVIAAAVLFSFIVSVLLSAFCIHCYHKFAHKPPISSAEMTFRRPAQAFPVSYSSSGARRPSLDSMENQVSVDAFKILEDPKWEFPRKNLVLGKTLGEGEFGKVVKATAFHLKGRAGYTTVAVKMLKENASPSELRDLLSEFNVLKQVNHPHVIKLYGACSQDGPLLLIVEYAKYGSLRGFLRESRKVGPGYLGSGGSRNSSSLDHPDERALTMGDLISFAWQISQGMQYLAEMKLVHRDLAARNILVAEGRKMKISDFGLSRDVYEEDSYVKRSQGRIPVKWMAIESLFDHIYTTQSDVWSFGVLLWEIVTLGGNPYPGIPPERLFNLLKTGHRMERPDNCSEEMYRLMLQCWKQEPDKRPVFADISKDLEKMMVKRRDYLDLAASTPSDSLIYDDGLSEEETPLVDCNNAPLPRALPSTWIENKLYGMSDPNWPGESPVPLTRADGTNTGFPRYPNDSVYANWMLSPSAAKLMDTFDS

LIM domain kinase 1 = LIM domain kinase 1 (Homo sapiens, UniProt P53667); test: Navigating the Kinome. Panel member name: LIMK1
[18] = biological target: Casein kinase I isoform alpha (Homo sapiens, UniProt P48729)
[19] = biological target: Vascular endothelial growth factor receptor 1 (Homo sapiens, UniProt P17948);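 note: measured within a kinome-wide profiling panel, FLT1 as the panel member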
[20] = biological target: T3, Tyrosine-protein kinase receptor TYRO3 (Homo sapiens, UniProt Q06418);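 note: TYRO3 value obtained as one member of a kinome-wide profiling panel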
T3 sequence (Q06418 whole entry): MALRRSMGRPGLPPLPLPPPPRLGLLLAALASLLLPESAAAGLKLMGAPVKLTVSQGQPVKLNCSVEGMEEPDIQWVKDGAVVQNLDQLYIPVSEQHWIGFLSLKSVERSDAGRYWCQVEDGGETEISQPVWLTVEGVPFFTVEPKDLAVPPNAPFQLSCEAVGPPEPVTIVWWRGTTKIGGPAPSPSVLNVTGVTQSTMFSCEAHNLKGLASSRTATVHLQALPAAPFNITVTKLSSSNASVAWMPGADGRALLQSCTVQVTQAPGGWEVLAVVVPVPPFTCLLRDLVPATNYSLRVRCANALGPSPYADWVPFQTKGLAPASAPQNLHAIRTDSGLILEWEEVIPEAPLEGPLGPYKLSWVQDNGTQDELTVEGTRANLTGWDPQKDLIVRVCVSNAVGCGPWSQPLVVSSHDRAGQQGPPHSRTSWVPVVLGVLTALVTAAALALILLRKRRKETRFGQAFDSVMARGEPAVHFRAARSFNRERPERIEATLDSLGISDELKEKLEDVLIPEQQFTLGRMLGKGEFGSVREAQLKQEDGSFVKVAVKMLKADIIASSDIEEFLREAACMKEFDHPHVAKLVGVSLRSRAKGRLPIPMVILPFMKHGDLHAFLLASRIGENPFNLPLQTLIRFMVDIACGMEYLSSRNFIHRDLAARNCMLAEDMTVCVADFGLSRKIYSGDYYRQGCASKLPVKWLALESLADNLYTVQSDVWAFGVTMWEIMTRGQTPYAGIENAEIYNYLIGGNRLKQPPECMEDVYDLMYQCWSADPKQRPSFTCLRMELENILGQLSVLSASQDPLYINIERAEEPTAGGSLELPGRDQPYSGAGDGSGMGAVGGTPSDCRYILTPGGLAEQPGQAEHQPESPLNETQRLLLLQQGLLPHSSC

[21] = biological target: Leucine-rich repeat serine/threonine-protein kinase 2 (Homo sapiens, UniProt Q5S007);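 note: value from a broad kinome-wide panel profiling study in which LRRK2 was one of the kinases tested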
[22] = biological target: Cyclin-dependent kinase 8 (Homo sapiens, UniProt P49336); test: Navigating the Kinome. Panel member name: CDK8
Chain of Cyclin-dependent kinase 8 (P49336 whole entry): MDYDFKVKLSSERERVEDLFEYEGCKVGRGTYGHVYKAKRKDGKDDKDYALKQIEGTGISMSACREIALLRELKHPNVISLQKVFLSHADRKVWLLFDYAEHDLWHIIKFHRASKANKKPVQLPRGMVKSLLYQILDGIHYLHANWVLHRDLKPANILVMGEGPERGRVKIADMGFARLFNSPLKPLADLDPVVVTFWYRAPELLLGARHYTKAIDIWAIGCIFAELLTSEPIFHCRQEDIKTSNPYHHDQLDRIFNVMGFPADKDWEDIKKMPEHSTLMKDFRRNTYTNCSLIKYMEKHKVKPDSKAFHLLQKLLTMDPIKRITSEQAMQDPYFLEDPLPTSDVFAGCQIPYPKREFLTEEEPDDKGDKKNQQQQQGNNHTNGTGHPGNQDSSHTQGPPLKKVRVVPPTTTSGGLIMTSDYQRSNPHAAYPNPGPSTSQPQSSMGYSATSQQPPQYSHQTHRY

[23] = biological target: Death-associated protein kinase 3 (Homo sapiens, UniProt O43293);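 note: measured as one member of a kinome-wide profiling panel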
Chain of Death-associated protein kinase 3 (O43293 whole entry): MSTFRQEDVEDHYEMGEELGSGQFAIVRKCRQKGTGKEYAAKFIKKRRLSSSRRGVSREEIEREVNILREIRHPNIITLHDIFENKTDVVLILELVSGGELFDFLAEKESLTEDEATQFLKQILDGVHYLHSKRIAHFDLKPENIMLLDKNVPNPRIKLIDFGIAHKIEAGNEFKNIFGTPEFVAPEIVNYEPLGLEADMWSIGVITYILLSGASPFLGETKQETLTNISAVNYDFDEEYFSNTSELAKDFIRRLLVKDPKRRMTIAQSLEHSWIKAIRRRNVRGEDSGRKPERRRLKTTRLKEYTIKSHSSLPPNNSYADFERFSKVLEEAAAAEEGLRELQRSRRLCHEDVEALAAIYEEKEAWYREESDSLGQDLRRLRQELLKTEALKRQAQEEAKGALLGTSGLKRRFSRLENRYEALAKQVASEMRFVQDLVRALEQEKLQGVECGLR

Aurora kinase B = Aurora kinase B (Homo sapiens, UniProt Q96GD4)
[24] = biological target: Macrophage colony-stimulating factor 1 receptor (Homo sapiens, UniProt P07333);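 note: value comes from the Navigating the Kinome screening panel, CSF1R member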
[25] = biological target: Dual specificity tyrosine-phosphorylation-regulated kinase 1B (Homo sapiens, UniProt Q9Y463); test: Navigating the Kinome. Panel member name: DYRK1B
[26] = biological target: Cyclin-dependent kinase 7 (Homo sapiens, UniProt P50613);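 note: value comes from a kinome-wide kinase profiling panel in which CDK7 is one member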

IC50 [1]: 17.8 µM (inactive) | IC50 [2]: 3.3 µM (active)
Structure (SMILES): O=c1c(Cl)c(Oc2ccc3c(c2)OCO3)cnn1Cc1cccc2ccccc12

Structure (SMILES): COc1cc(OC)cc(-c2sc3ccc(OC)cc3c2-c2ccc(OCCN3CCOCC3)cc2)c1
EC50 [3]: 13.7 µM (active) | EC50 [4]: 11.3 µM (active) | EC50 [5]: 38.5 µM (active)

Ki [6]: 100 µM (active) | Ki [7]: 63.1 µM (active) | Ki [8]: 25.1 µM (active) | Ki [9]: 79.4 µM (active) | Ki [10]: 39.8 µM (active) | Ki [11]: 12.6 µM (active) | Ki [12]: 100 µM (active) | Ki [13]: 25.1 µM (active) | Ki [14]: 50.1 µM (active) | Ki [15]: 31.6 µM (active) | Ki [16]: 50.1 µM (active) | Ki [17]: 31.6 µM (active) | Ki (LIM domain kinase 1): 20 µM (active) | Ki [18]: 20 µM (active) | Ki [19]: 25.1 µM (active) | Ki [20]: 63.1 µM (active) | Ki [21]: 31.6 µM (active) | Ki [22]: 100 µM (active) | Ki (Aurora kinase B): 31.6 µM (active) | Ki [24]: 79.4 µM (active) | Ki [25]: 39.8 µM (active) | Ki [26]: 63.1 µM (active)
Structure (SMILES): Nc1ncnc2c1C(=O)NCCN2
Ki [23]: 15.8 µM (active)
